Assay results from patent US9381191B2, “Imidazopyridine derivatives useful in treating diabetes” (METABRAIN RESEARCH, priority 2012, dated 2016).
Where a name gives a salt, the structure may show the parent alone.

Tests used:
isolated rat hepatocytes = experiment: Hepatic production of glucose, 3 h incubation; format: cell-based, Wistar rat; conditions: for activity at 50 µM / activity at 100 µM: Hepatocyte, rat hepatocytes; for activity at 50 µM: read-out: HGP % of ctrl @ 50 μM; for activity at 100 µM: read-out: HGP % of ctrl @ 100 μM
Description: The hepatocytes are isolated from Wistar rat liver having fasted for 24 h after perfusion of collagenase in the portal vein. 1) The freshly isolated hepatocytes are sown in 6-well plates coated with collagen and containing an adhesion medium (Williams Medium). After adhesion, the medium is replaced with RPMI 1640 medium without any glucose, containing hydrocortisone (7·10^−5M) for a duration from 16 to 18 h. The next day, the glucose hepatic production test is conducted in a Krebs medium for 3 h. The basal conditions are cells incubated with only Krebs, the stimulated conditions are the cells placed in Krebs+lactate+pyruvate, the produced conditions are the cells exposed to chemical compounds in a Krebs/lactate/pyruvate medium. In the case when the compounds are dissolved in DMSO, all the conditions of the tests are met in the presence of a final concentration of 0.1% DMSO. The positive control of the test is the mercaptopicolinate known for its inhibitory action on hepatic production of glucose via the phosphoenolpyruvate carboxykinase. For short term treatments, the compounds are incubated for 3 h. For long term treatments, the compounds are incubated for 20 h at the moment when the hepatocytes are cultivated in RPMI and then added during the hepatic production test for 3 h. At the end of the 3 hours of incubation, the supernatant is recovered for measurement of glucose with a colorimetric method using glucose oxidase. The cells are lysed with a 0.1% NaOH aqueous solution in order to measure the amount of protein with the Lowry method. The results are expressed in mmol of glucose per mg of protein.

INS-1 cells = experiment: Stimulation test of insulin secretion by INS-1 cells; format: cell-based; conditions: Rattus norvegicus, INS1, 1 h, insulin secretion by INS-1 cells in response to glucose; for insulin secretion, % of control at 10 µM: read-out: HGP % of ctrl @ 10 μM; for insulin secretion, % of control at 50 µM: read-out: HGP % of ctrl @ 50 μM
Description: The different compounds were tested on an INS-1 beta-pancreatic line in order to evaluate their capability of potentializing the insulin secretion in response to glucose. Very briefly, the cells are cultivated in a culture medium, RPMI 1640 with 10 mM glucose containing 1 mM of sodium pyruvate, 50 μM of 2-mercaptoethanol, 2 mM of glutamine, 10 mM of HEPES, 100 IU/ml of penicillin, 100 μg/ml of streptomycin and 10% of inactivated fetal calf serum, as described by Asfari et al.. For the insulin secretion test, the INS-1 cells are sown and cultivated in 96-well plates. After 3 days of cultivation at 37° C. in a humid atmosphere (95% air/5% CO2), the medium is removed and the cells are incubated for 16 h in a medium containing 5 mM of glucose and 1% of inactivated fetal calf serum. On the day of the test, the cells are washed with a Krebs buffer (pH 7.4) containing 0.1% of bovine albumin and then pre-incubated for 30 min at 37° C. in this same buffer containing 2.8 mM of glucose. Finally, the cells are again washed with Krebs buffer and then incubated for 1 h in the buffer of the secretion test (Krebs, pH 7.4 containing 0.1% of bovine albumin and 3.5 mM of glucose and molecules to be evaluated). At the end of the test, the cell supernatant is recovered in order to measure therein the secreted insulin, by means of an ELISA kit using a rat anti-insulin antibody (ELISA Alpco Cat no. 80-INSRTH-E10). Each condition is tested in triplicate. The 3.5 mM glucose, the 10^−7M GLP-1 and the Forskoline 10^−7/IBMX 10^−5M mixtures are used as positive controls of the test. A compound stimulates the secretion of insulin if this factor is greater than or equal to 130% of the control for a given glucose dose.

SMILES | activity at 50 µM (isolated rat hepatocytes) [%] | activity at 100 µM (isolated rat hepatocytes) [%] | insulin secretion, % of control at 10 µM (INS-1 cells) [%] | insulin secretion, % of control at 50 µM (INS-1 cells) [%] | inhibition of hepatic production of glucose (isolated rat hepatocytes; dose of 100 μM) | inhibition of hepatic production of glucose (isolated rat hepatocytes; with two doses)
CCOC(=O)COCc1nc2ccccn2c1C#Cc1ccc(F)cc1 [Derivative 3, ethyl 2-((3-((4-fluorophenyl)-ethynyl)imidazo[1,2-a]pyridin-2-yl)methoxy)acetate] | 73 | 60 | 130 | 472 | – | –
COC(=O)c1cccc(OCc2nc3ccccn3c2C#Cc2cccc(C(F)(F)F)c2)c1 [Derivative 81, methyl 3-((3-((3-(trifluoromethyl)-phenyl)ethynyl)imidazo[1,2-a]pyridin-2-yl)methoxy)benzoate] | 76 | 47 | 142 | 134 | strongest inhibitions | –
CCOC(=O)COCc1nc2ccccn2c1C#Cc1ccccc1F [Derivative 25, ethyl 2-((3-((2-fluorophenyl)-ethynyl)imidazo[1,2-a]pyridin-2-yl)methoxy)acetate] | 83 | 73 | 134 | 226 | – | –
CCOC(=O)COCc1nc2ccccn2c1C#Cc1cccc(C#N)c1 [Derivative 14, ethyl 2-((3-((3-cyanophenyl)-ethynyl)imidazo[1,2-a]pyridin-2-yl)methoxy)acetate] | 86 | 73 | 100 | 242 | – | –
CCOC(=O)CN(C)Cc1nc2ccc(Cl)cn2c1C#Cc1cccc(C(F)(F)F)c1 [Derivative 102, ethyl 2-[[6-chloro-3-[2-[3-(trifluoromethyl)phenyl]ethynyl]imidazo[1,2-a]pyridin-2-yl]methyl-methyl-amino]acetate] | – | – | 176 | 107 | – | –
O=C(O)c1ccccc1OCc1nc2ccccn2c1C#Cc1ccc(F)cc1 [Derivative 88, 2-((3-((4-fluorophenyl)ethynyl)-imidazo[1,2-a]pyridin-2-yl)methoxy)benzoic acid] | 67 | 50 | 138 | 263 | strongest inhibitions | –
COC(=O)c1ccccc1OCc1nc2ccccn2c1C#Cc1ccccc1 [Derivative 78, methyl 2-((3-(phenylethynyl)-imidazo[1,2-a]pyridin-2-yl)methoxy)benzoate] | 51 | 44 | 197 | 152 | – | strongest inhibitions
CC(C)(CO)C(OCc1nc2ccccn2c1C#Cc1cccc(C(F)(F)F)c1)C(=O)O (stereo not drawn) [Derivative 129, 4-hydroxy-3,3-dimethyl-2-[[3-[2-[3-(trifluoromethyl)phenyl]ethynyl]imidazo[1,2-a]pyridin-2-yl]methoxy]butanoic acid] | – | – | 109 | 146 | – | –
O=C([O-])c1ccccc1OCc1nc2ccccn2c1C#Cc1ccccc1.[Na+] [Derivative 92, sodium 2-((3-(phenylethynyl)imidazo-[1,2-a]pyridin-2-yl)methoxy)-benzoate] | 58 | 39 | 135 | 211 | – | strongest inhibitions
CCOC(=O)CSCc1nc2ccc(Cl)cn2c1C#Cc1cccc(OC(F)(F)F)c1 [Derivative 112, ethyl 2-[[6-chloro-3-[2-[3-(trifluoromethoxy)phenyl]ethynyl]imidazo[1,2-a]pyridin-2-yl]methylsulfanyl]acetate] | 65 | 26 | 150 | 256 | strongest inhibitions | –
COC(=O)c1cccc(OCc2nc3ccccn3c2C#Cc2ccccc2)c1 [Derivative 87, methyl 3-((3-(phenylethynyl)-imidazo[1,2-a]pyridin-2-yl)methoxy)benzoate] | 43 | 25 | 182 | 167 | – | strongest inhibitions
CCOC(=O)COCc1nc2ccccn2c1C#Cc1ccccc1 [Derivative 1, ethyl 2-((3-(phenylethynyl)-imidazo[1,2-a]pyridin-2-yl)-methoxy)acetate] | 70 | 56 | 121 | 211 | – | –
CCOC(=O)COCc1nc2ccccn2c1C#Cc1ccc([N+](=O)[O-])cc1 [Derivative 5, ethyl 2-((3-((4-nitrophenyl)-ethynyl)imidazo[1,2-a]pyridin-2-yl)methoxy)acetate] | – | – | 180 | 195 | – | –
O=C(O)COCc1nc2ccccn2c1C#Cc1ccc(OC(F)(F)F)c(F)c1 [Derivative 39, 2-((3-((3-fluoro-4-(trifluoro-methoxy)phenyl)ethynyl)imidazo [1,2-a]pyridin-2-yl)methoxy)acetic acid] | – | – | 121 | 137 | – | –
CCOC(=O)[C@@H](N)CSCc1nc2ccccn2c1C#Cc1cccc(C(F)(F)F)c1 [Derivative 113, ethyl (2R)-2-amino-3-[[3-[2-[3-(trifluoromethyl)phenyl]ethynyl]imidazo[1,2-a]pyridin-2-yl]methyl-sulfanyl]propanoate] | – | – | 136 | 112 | – | –
COc1cccn2c(C#Cc3cccc(C(F)(F)F)c3)c(CSCCO)nc12 [Derivative 130, 2-[[8-methoxy-3-[2-[3-(trifluoromethyl)phenyl]ethynyl]imidazo[1,2-a]pyridin-2-yl]methylsulfanyl]ethanol] | – | – | 150 | 114 | – | –
CCOC(=O)CN(C)Cc1nc2ccccn2c1C#Cc1cccc(C(F)(F)F)c1 [Derivative 101, ethyl 2-[methyl-[[3-[2-[3-(trifluoromethyl)phenyl]ethynyl]imidazo[1,2-a]pyridin-2-yl]-methyl]amino]acetate hydrochloride] | – | – | 163 | 111 | – | –
OCCSCc1nc2ccc(Cl)cn2c1C#Cc1cccc(C(F)(F)F)c1 [Derivative 131, 2-[[6-chloro-3-[2-[3-(trifluoromethyl)phenyl]ethynyl]imidazo[1,2-a]pyridin-2-yl]methylsulfanyl]ethanol] | – | – | 131 | – | – | –
COC(=O)CN(C)Cc1nc2ccccn2c1C#Cc1cccc(C(F)(F)F)c1 [Derivative 72, methyl 2-(methyl((3-((3-(trifluoromethyl)-phenyl)ethynyl)-imidazo[1,2-a]pyridin-2-yl)methyl)amino)acetate] | – | – | 172 | 151 | – | –
CN(C)CCNC(=O)COCc1nc2ccccn2c1C#Cc1cccc(C(F)(F)F)c1 [Derivative 55, N-(2-(dimethylamino)ethyl)-2-((3-((3-(trifluoromethyl)-phenyl)ethynyl)imidazo[1,2-a]-pyridin-2-yl)methoxy)acetamide] | – | – | 130 | 135 | – | –
CCOC(=O)COCc1nc2ccccn2c1C#Cc1ccsc1 [Derivative 9, ethyl 2-((3-(thiophen-3-ylethynyl)-imidazo[1,2-a]pyridin-2-yl)methoxy)acetate] | – | – | 116 | 175 | – | –
CCOC(=O)COCc1nc2ccccn2c1C#Cc1ccc(C)cc1 [Derivative 2, ethyl 2-((3-(p-tolylethynyl)-imidazo[1,2-a]pyridin-2-yl)-methoxy)acetate] | – | – | 127 | 333 | – | –
